Measurements: patent publication US20130122541A1, “MICROORGANISM PRODUCTION OF HIGH-VALUE CHEMICAL PRODUCTS, AND RELATED COMPOSITIONS, METHODS AND SYSTEMS” (The Regents of the University of Colorado, priority 2010, published 2013)
In brackets after ≈: the same amount, converted by molar mass. Like-named read-outs stand apart in the source and are kept apart here.

Columns and labels:
Type in all cases: cell-based
B. subtilis = test: MIC evaluation of 3-HP, B. subtilis aerobic, M9 media + glutamate, 96 well-plate, 24 h (Common Methods)
Description: (§1) For MIC evaluations, the final results are expressed in chemical agent concentrations determined by analysis of the stock solution by HPLC (i.e., see Subsection IIIb).
The minimum inhibitory concentration (MIC) was determined aerobically in a 96 well-plate format. […] Media supplements were added according to levels reported in the Supplements Table where specified. Overnight cultures of strains were grown in triplicate in 5 mL LB (with antibiotic where appropriate). A 1% (v/v) inoculum was introduced into a 5 ml culture of M9 minimal media+glutamate.

E. coli = test: microbe, parasite or virus in culture; conditions: for % Increase Over Control: anaerobic; for MIC: Escherichia coli
Description: as §1
The minimum inhibitory concentration (MIC) was determined anaerobically in a 96 well-plate format. […] Media supplements were added according to levels reported in the Supplements Table, where specified. Overnight cultures of strains were grown in triplicate in 5 mL LB (with antibiotic where appropriate). A 1% (v/v) inoculum was introduced into a 5 ml culture of M9 minimal media.

[1] = system: E. coli K12+pSMART-LC-Kan-cynTS; conditions: Escherichia coli, 24 h, read-out: Minimum inhibitory concentration (MIC) of 3-HP for E. coli K12+pSMART-LC-Kan-cynTS in M9 minimal media
Description: Overnight cultures of strains were grown in 5 ml LB (with antibiotic where appropriate) at 37° C. in a shaking incubator. A 1 v/v % was used to inoculate 10 mL of M9 minimal media. After the cells reached mid-exponential phase, the culture was diluted to an OD600 of 0.200. The cells were further diluted 1:20 and a 10 ul aliquot was used to inoculate each well (˜10^4 cells per well). […] The MIC endpoint is the lowest concentration of compound at which there was no visible growth.
Purified plasmid was retransformed into E. coli K12 by standard techniques and MIC measured as described in Example 37.

[2] = strain BSX_0003.0 (pWH1520), M9 + glu + trp + 1 mM Xylose

In the case of O=C(O)CCO [3-HP, 3-hydroxypropionic acid], the “% Increase Over Control” value (B. subtilis; B. subtilis 168, M9 + glu + trp, supplements none (control)) is reported as 0%, the “% Increase Over Control” value (B. subtilis; [2]) is reported as 0% and the “Avg 24 hr ΔOD600” value (B. subtilis; [2]) is reported as 0.00. For the same compound, the “Avg 24 hr ΔOD600” value (B. subtilis; strain BSX_0011.0 (pWH1520-Pxyl:speB region), M9 + glu + trp + 1 mM Xylose) was 0.07, the “Avg 24 hr ΔOD600” value (B. subtilis; strain BSX_0015.0 (pWH1520-Pxyl:metE region), M9 + glu + trp + 1 mM Xylose) was 0.06 and the “% Increase Over Control” value (E. coli; BW25113, EZ Rich media vs M9 control) was 150%. It also gave an MIC (E. coli; BW25113, read-out: MIC Assay Result (g/L 3-HP), BW25113, EZ Rich media, supplements none, anaerobic) of 75 g/L (≈ 833 mM), an MIC (E. coli; BW25113, read-out: MIC Assay Result (g/L 3-HP), BW25113, M9, supplements none (control), anaerobic) of 30 g/L (≈ 333 mM) and an MIC (E. coli; BW25113, read-out: MIC Assay Result (g/L 3-HP), anaerobic, strain BX_00002.0: BW25113 wild type, pKK223-mcs1 (control), M9 + Amp (100 μg/mL)) of 15 g/L. For the same compound, the MIC (E. coli; BW25113, read-out: MIC Assay Result (g/L 3-HP), anaerobic, strain BX_00003.0: BW25113 wild type, pBT-3 (control), M9 + Cm (20 μg/mL)) was 15 g/L, the MIC (E. coli; BW25113, read-out: MIC Assay Result (g/L 3-HP), anaerobic, strain BX_00118.0: BW25113 wild type, pJ251 (control), M9 + Kan (20 μg/mL)) was 15 g/L and the MIC (E. coli; BW25113, read-out: MIC Assay Result (g/L 3-HP), anaerobic, strain BX_00138.0: BW25113 wild type, pSmart-LC-Kan (control), M9 + Kan (20 μg/mLl)) was 25 g/L. The MIC (E. coli; BW25113, read-out: MIC Assay Result (g/L 3-HP), anaerobic, strain BX_00144.0: BW25113 wild type, pSmart-HC-Amp (control), M9 + Amp (100 μg/mL)) was 25 g/L, the MIC (E. coli; BW25113, read-out: MIC Assay Result (g/L 3-HP), anaerobic, strain BX_00319.0: BW25113 wild type, pK223-aroH, M9 + Amp 100 μg/mL + 1 mM IPTG) was 20 g/L and the MIC (E. coli; BW25113, read-out: MIC Assay Result (g/L 3-HP), anaerobic, strain BX_00320.0: BW25113 wild type, pK223-metE C645A, M9 + Amp 100 μg/mL + 1 mM IPTG) was 20 g/L. For the same compound, the MIC (E. coli; BW25113, read-out: MIC Assay Result (g/L 3-HP), anaerobic, strain BX_00322.0: BW25113 wild type, pJ61-speFED, M9 + Kan 20 μg/mL) was 25 g/L, the MIC (E. coli; BW25113, read-out: MIC Assay Result (g/L 3-HP), anaerobic, strain BX_00323.0: BW25113 wild type, pJ61-aroG, M9 + Kan 20 μg/mL) was 20 g/L and the MIC (E. coli; BW25113, read-out: MIC Assay Result (g/L 3-HP), anaerobic, strain BX_00324.0: BW25113 wild type, pJ61-thrA, M9 + Kan 20 μg/mL) was 20 g/L. The MIC (E. coli; BW25113, read-out: MIC Assay Result (g/L 3-HP), anaerobic, strain BX_00325.0: BW25113 wild type, pJ61-asd, M9 + Kan 20 μg/mL) was 20 g/L, the MIC (E. coli; BW25113, read-out: MIC Assay Result (g/L 3-HP), anaerobic, strain BX_00326.0: BW25113 wild type, pJ61-ilvA, M9 + Kan 20 μg/mL) was 20 g/L and the MIC (E. coli; BW25113, read-out: MIC Assay Result (g/L 3-HP), anaerobic, strain BX_00327.0: BW25113 wild type, pJ61-cysM, M9 + Kan 20 μg/mL) was 20 g/L. It also gave an MIC (E. coli; BW25113, read-out: MIC Assay Result (g/L 3-HP), anaerobic, strain BX_00357.0: BW25113 wild type, pKK223-aroH*445, M9 + Amp 100 μg/mL + 1 mM IPTG) of 20 g/L, an MIC (E. coli; BW25113, read-out: MIC Assay Result (g/L 3-HP), anaerobic, strain BX_00358.0: BW25113 wild type, pKK223-aroH*447, M9 + Amp 100 μg/mL + 1 mM IPTG) of 20 g/L and an MIC (E. coli; BW25113, read-out: MIC Assay Result (g/L 3-HP), anaerobic, strain BX_00359.0: BW25113 wild type, pKK223-aroH*457, M9 + Amp 100 μg/mL + 1 mM IPTG) of 20 g/L. The MIC (E. coli; BW25113, read-out: MIC Assay Result (g/L 3-HP), anaerobic, strain BX_00360.0: BW25113 wild type, pACYC177 (Kan only)-cynTS, M9 + Kan 20 μg/mL) was 20 g/L, the MIC (E. coli; BW25113, read-out: MIC Assay Result (g/L 3-HP), anaerobic, strain BX_00362.0: BW25113 wild type, pACYC177 (Kan only)-aroH, M9 + Kan 20 μg/mL + 1 mM IPTG) was 20 g/L and the MIC (E. coli; BW25113, read-out: MIC Assay Result (g/L 3-HP), anaerobic, strain BX_00363.0: BW25113 wild type, pACYC177 (Kan only)-speB, M9 + Kan 20 μg/mL) was 20 g/L. For the same compound, the MIC (E. coli; BW25113, read-out: MIC Assay Result (g/L 3-HP), anaerobic, strain BX_00364.0: BW25113 wild type, pACYC177 (Kan only)-metE, M9 + Kan 20 μg/mL + 1 mM IPTG) was 20 g/L, the MIC (E. coli; BW25113, read-out: MIC Assay Result (g/L 3-HP), anaerobic, strain BX_00365.0: BW25113 wild type, pACYC177 (Kan only)-metC, M9 + Kan 20 μg/mL) was 20 g/L and the MIC (E. coli; BW25113, read-out: MIC Assay Result (g/L 3-HP), anaerobic, strain BX_00368.0: BW25113 wild type, pBT-3-cynTS, M9 + Cm (20 μg/mL)) was 20 g/L. For the same compound, the MIC (E. coli; BW25113, read-out: MIC Assay Result (g/L 3-HP), anaerobic, strain BX_00426.0: BW25113 ΔnrdR::frt, pSmart-HC-Amp-cadA, M9 + Amp (100 μg/mL)) was 26.7 g/L, the “% Increase Over Control” value (E. coli; strain BX_00311.0 (pSmart-LC-Kan-glyA-ORF)) was 20% and the “% Increase Over Control” value (E. coli; strain BX_00319.0 (pK223-aroH)) was 33%. For the same compound, the “% Increase Over Control” value (E. coli; strain BX_00320.0 (pK223-metE C645A)) was 33%, the “% Increase Over Control” value (E. coli; strain BX_00321.0 (pK223-ct-his-thrA)) was 33% and the “% Increase Over Control” value (E. coli; strain BX_00322.0 (pJ61-speFED)) was 67%. For the same compound, the “% Increase Over Control” value (E. coli; strain BX_00323.0 (pJ61-aroG)) was 33%, the “% Increase Over Control” value (E. coli; strain BX_00324.0 (pJ61-thrA)) was 33% and the “% Increase Over Control” value (E. coli; strain BX_00325.0 (pJ61-asd)) was 33%. For the same compound, the “% Increase Over Control” value (E. coli; strain BX_00326.0 (pJ61-ilvA)) was 33%, the “% Increase Over Control” value (E. coli; strain BX_00327.0 (pJ61-cysM)) was 33% and the “% Increase Over Control” value (E. coli; strain BX_00357.0 (pKK223-aroH*445)) was 33%. For the same compound, the “% Increase Over Control” value (E. coli; strain BX_00358.0 (pKK223-aroH*447)) was 33%, the “% Increase Over Control” value (E. coli; strain BX_00359.0 (pKK223-aroH*457)) was 33% and the “% Increase Over Control” value (E. coli; strain BX_00360.0 (pACYC177 (Kan only)-cynTS)) was 33%. For the same compound, the “% Increase Over Control” value (E. coli; strain BX_00362.0 (pACYC177 (Kan only)-aroH)) was 33%, the “% Increase Over Control” value (E. coli; strain BX_00363.0 (pACYC177 (Kan only)-speB)) was 33% and the “% Increase Over Control” value (E. coli; strain BX_00364.0 (pACYC177 (Kan only)-metE)) was 33%. The “% Increase Over Control” value (E. coli; strain BX_00365.0 (pACYC177 (Kan only)-metC)) was 33%, the “% Increase Over Control” value (E. coli; strain BX_00368.0 (pBT-3-cynTS)) was 33% and the “% Increase Over Control” value (E. coli; strain BX_00426.0 (ΔnrdR::frt, pSmart-HC-Amp-cadA)) was 7%. It also gave an MIC [1] of 50 mg/mL (≈ 555 mM).
